Results taken from patent publication US6737383B1, “Herbicidal oxadiazolidines” (priority 1999, dated 2004).

Key:
green foxtail = assay: Test E green foxtail; assay type: in vivo, Setaria viridis; conditions: Preemergence
wild oat = assay: Test E wild oat; assay type: in vivo, Avena fatua; conditions: Preemergence
giant foxtail = assay: Test B pre/postemergence giant foxtail; assay type: in vivo, Setaria faberii
How it was run: (§1)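 Test chemicals in a non-phytotoxic solvent mixture with surfactant were sprayed preemergence onto planted seeds and postemergence onto plants 2 to 18 cm tall (1- to 4-leaf stage). After twelve to sixteen days in a greenhouse, injury was visually rated against untreated controls from 0 (no effect) to 10 (complete control).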

pigweed = assay: Test B pre/postemergence pigweed; assay type: in vivo, Amaranthus retroflexus
How it was run: as §1

winter barley = assay: Test E winter barley; assay type: in vivo, Hordeum vulgare; conditions: Preemergence
morningglory = assay: Test B pre/postemergence morningglory; assay type: in vivo, Ipomoea hederacea
How it was run: as §1

blackgrass = assay: Test E blackgrass; assay type: in vivo, Alopecurus myosuroides; conditions: Preemergence
Italian ryegrass = assay: Test E Italian ryegrass; assay type: in vivo, Lolium multiflorum; conditions: Preemergence
winter wheat [1] = assay: Test E winter wheat; assay type: in vivo, Triticum aestivum; conditions: Preemergence
winter wheat [2] = assay: Test E winter wheat; assay type: in vivo, Triticum aestivum; conditions: Postemergence
How it was run: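 Compound formulated with surfactant in a non-phytotoxic solvent (postemergence: young 1- to 4-leaf plants); held in greenhouse approx. 21–28 days; visual assessment against untreated plants.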

[3] = Rate 500 g/ha, 0 to 100 scale (0 no effect, 100 complete control)
[4] = Rate 1000 g/ha, 0 to 100 scale, 0 no effect, 100 complete control
[5] = Preemergence, Rate 62 g/ha, scale of 0 to 10 where 0 is no effect and 10 is complete control
[6] = Preemergence, Rate 250 g/ha, scale of 0 to 10 where 0 is no effect and 10 is complete control
[7] = Preemergence, Rate 500 g/ha, scale of 0 to 10 where 0 is no effect and 10 is complete control
[8] = Rate 62 g/ha, Postemergence, scale 0 to 10 (0 no effect, 10 complete control)
[9] = Rate 125 g/ha, Postemergence, scale of 0 to 10 where 0 is no effect and 10 is complete control
[10] = Rate 125 g/ha, Preemergence, scale of 0 to 10 where 0 is no effect and 10 is complete control
[11] = Rate 250 g/ha, Postemergence, scale of 0 to 10 where 0 is no effect and 10 is complete control
[12] = Postemergence, Rate 62 g/ha, scale 0 to 10, 0 is no effect, 10 is complete control
[13] = Postemergence, Rate 125 g/ha, scale of 0 to 10 where 0 is no effect and 10 is complete control
[14] = Postemergence, Rate 250 g/ha, scale of 0 to 10, 0 is no effect, 10 is complete control
[15] = Postemergence, Rate 500 g/ha, scale of 0 to 10 where 0 is no effect and 10 is complete control
[16] = Preemergence, Rate 62 g/ha, scale 0 to 10 (0 no effect, 10 complete control)
[17] = Preemergence, Rate 125 g/ha, scale of 0 to 10 where 0 is no effect and 10 is complete control
[18] = Preemergence, Rate 250 g/ha, scale 0 to 10 (0 no effect, 10 complete control)
[19] = Postemergence, Rate 125 g/ha, scale 0 to 10, 0 is no effect, 10 is complete control
[20] = Rate 500 g/ha, Postemergence, scale 0 to 10, 0 no effect, 10 complete control
[21] = Postemergence, Rate 250 g/ha, scale 0 to 10, 0 no effect, 10 complete control
[22] = Preemergence, Rate 125 g/ha, scale 0 to 10 (0 no effect, 10 complete control)
[23] = Preemergence, Rate 500 g/ha, scale 0 to 10 (0 no effect, 10 complete control)
[24] = Rate 62 g/ha, Postemergence, scale of 0 to 10 where 0 is no effect and 10 is complete control

SMILES: CCN(CC)C(=O)n1oc(=O)n(C2CC2)c1=O [Compound 297]
- Plant response rating, Green foxtail (green foxtail; Rate 250 g/ha, 0 to 100 scale): 60
- Plant response rating, Green foxtail (green foxtail; [3]): 60
- Plant response rating, Green foxtail (green foxtail; [4]): 60
- Plant response rating, Wild oat (wild oat; Rate 250 g/ha, 0 to 100 scale): 70
- Plant response rating, Wild oat (wild oat; [3]): 60
- Plant response rating, Wild oat (wild oat; [4]): 70
- Giant foxtail plant response rating (giant foxtail; [5]): 0
- Giant foxtail plant response rating (giant foxtail; [6]): 7
- Plant response rating, Giant foxtail (giant foxtail; [7]): 7
- Giant foxtail plant response rating (giant foxtail; [8]): 0
- Giant foxtail plant response rating (giant foxtail; [9]): 0
- Giant foxtail plant response rating (giant foxtail; [10]): 0
- Plant response rating, Giant foxtail (giant foxtail; [11]): 0
- Redroot pigweed plant response rating (pigweed; [5]): 0
- Redroot pigweed plant response rating (pigweed; [6]): 0
- Plant response rating, Redroot pigweed (pigweed; [7]): 0
- Redroot pigweed plant response rating (pigweed; [8]): 0
- Redroot pigweed plant response rating (pigweed; [9]): 0
- Redroot pigweed plant response rating (pigweed; [10]): 0
- Plant response rating, Redroot pigweed (pigweed; [11]): 0
- Plant response rating, Barley (winter) (winter barley; Rate 250 g/ha, 0 to 100 scale, 0 no effect, 100 complete control): 50
- Plant response rating, Barley (winter) (winter barley; [3]): 55
- Plant response rating, Barley (winter) (winter barley; [4]): 60
- Morningglory plant response rating (morningglory; [5]): 0
- Morningglory plant response rating (morningglory; [6]): 0
- Plant response rating, Morningglory (morningglory; [7]): 0
- Morningglory plant response rating (morningglory; [8]): 0
- Morningglory plant response rating (morningglory; [9]): 0
- Morningglory plant response rating (morningglory; [10]): 0
- Plant response rating, Morningglory (morningglory; [11]): 0
- Plant response rating, Blackgrass (blackgrass; Rate 250 g/ha, 0 to 100 scale): 40
- Plant response rating, Blackgrass (blackgrass; [3]): 20
- Plant response rating, Blackgrass (blackgrass; [4]): 50
- Plant response rating, I. Ryegrass (Italian ryegrass; Rate 250 g/ha, 0 to 100 scale): 60
- Plant response rating, I. Ryegrass (Italian ryegrass; [3]): 50
- Plant response rating, I. Ryegrass (Italian ryegrass; [4]): 40
- Plant response rating, Wheat (winter) (winter wheat [1]; Rate 250 g/ha, 0 to 100 scale): 30
- Plant response rating, Wheat (winter) (winter wheat [1]; [3]): 60
- Plant response rating, Wheat (winter) (winter wheat [1]; [4]): 70
- Plant response rating, Wheat (winter) (winter wheat [2]; Rate 250 g/ha, 0 to 100 scale, 0 is no effect, 100 is complete control): 50
- Plant response rating, Wheat (winter) (winter wheat [2]; Rate 1000 g/ha, 0 to 100 scale where 0 is no effect and 100 is complete control): 70
- Plant response rating, Wheat (winter) (winter wheat [2]; Rate 500 g/ha, 0 to 100 scale, 0 is no effect, 100 is complete control): 60

SMILES: CCOC(Cn1c(=O)on(C(=O)N(c2ccccc2)C(C)C)c1=O)OCC [Compound 632]
- Plant response rating, Giant foxtail (giant foxtail; [12]): 3
- Plant response rating, Giant foxtail (giant foxtail; [13]): 7
- Giant foxtail plant response rating (giant foxtail; [14]): 8
- Plant response rating, Giant foxtail (giant foxtail; [15]): 9
- Giant foxtail plant response rating (giant foxtail; [16]): 8
- Giant foxtail plant response rating (giant foxtail; [17]): 10
- Plant response rating, Giant foxtail (giant foxtail; [18]): 10
- Plant response rating, Giant foxtail (giant foxtail; [7]): 10
- Plant response rating, Redroot pigweed (pigweed; [12]): 0
- Plant response rating, Redroot pigweed (pigweed; [13]): 0
- Redroot pigweed plant response rating (pigweed; [14]): 0
- Redroot pigweed plant response rating (pigweed; [16]): 0
- Redroot pigweed plant response rating (pigweed; [17]): 0
- Plant response rating, Redroot pigweed (pigweed; [18]): 6
- Plant response rating, Redroot pigweed (pigweed; [7]): 10
- Plant response rating, Morningglory (morningglory; [12]): 1
- Plant response rating, Morningglory (morningglory; [13]): 1
- Morningglory plant response rating (morningglory; [14]): 2
- Plant response rating, Morningglory (morningglory; [15]): 10
- Morningglory plant response rating (morningglory; [16]): 0
- Morningglory plant response rating (morningglory; [17]): 0
- Plant response rating, Morningglory (morningglory; [18]): 4
- Plant response rating, Morningglory (morningglory; [7]): 5

SMILES: CC(C)N(C(=O)n1oc(=O)n(C2CC3CCC2C3)c1=O)c1ccc(F)cc1F (stereo not shown) [Compound 326]
- Plant response rating, Giant foxtail (giant foxtail; [19]): 0
- Giant foxtail plant response rating (giant foxtail; [5]): 0
- Giant foxtail plant response rating (0 to 10 scale) (giant foxtail; Preemergence, Rate 125 g/ha): 2
- Giant foxtail plant response rating (giant foxtail; [6]): 8
- Giant foxtail plant response rating (giant foxtail; [7]): 9
- Giant foxtail plant response rating (giant foxtail; [8]): 0
- Plant response rating, Giant foxtail (giant foxtail; [11]): 0
- Plant response rating, Giant foxtail (giant foxtail; [20]): 2
- Plant response rating, Redroot pigweed (pigweed; [19]): 4
- Redroot pigweed plant response rating (pigweed; [5]): 1
- Redroot pigweed plant response rating (0 to 10 scale) (pigweed; Preemergence, Rate 125 g/ha): 3
- Redroot pigweed plant response rating (pigweed; [6]): 6
- Redroot pigweed plant response rating (pigweed; [7]): 7
- Redroot pigweed plant response rating (pigweed; [8]): 3
- Plant response rating, Redroot pigweed (pigweed; [11]): 4
- Plant response rating, Redroot pigweed (pigweed; [20]): 7
- Plant response rating, Morningglory (morningglory; [19]): 7
- Morningglory plant response rating (morningglory; [5]): 0
- Morningglory plant response rating (0 to 10 scale) (morningglory; Preemergence, Rate 125 g/ha): 0
- Morningglory plant response rating (morningglory; [6]): 0
- Morningglory plant response rating (morningglory; [7]): 0
- Morningglory plant response rating (morningglory; [8]): 5
- Plant response rating, Morningglory (morningglory; [20]): 10

SMILES: Cc1nn(C)c(C)c1-n1c(=O)on(C(=O)N(c2ccccc2)C(C)C)c1=O [Compound 120]
- Giant foxtail plant response rating (giant foxtail; [13]): 6
- Giant foxtail plant response rating (giant foxtail; [21]): 8
- Giant foxtail plant response rating (giant foxtail; [16]): 8
- Plant response rating, Giant foxtail (giant foxtail; [22]): 9
- Plant response rating, Giant foxtail (giant foxtail; [6]): 9
- Giant foxtail plant response rating (giant foxtail; [23]): 10
- Giant foxtail plant response rating (giant foxtail; [24]): 3
- Giant foxtail plant response rating (giant foxtail; [20]): 8
- Redroot pigweed plant response rating (pigweed; [13]): 0
- Redroot pigweed plant response rating (pigweed; [16]): 7
- Plant response rating, Redroot pigweed (pigweed; [22]): 8
- Plant response rating, Redroot pigweed (pigweed; [6]): 8
- Redroot pigweed plant response rating (pigweed; [23]): 8
- Redroot pigweed plant response rating (pigweed; [24]): 0
- Plant response rating, Redroot pigweed (pigweed; Rate 250 g/ha, Postemergence, scale 0 to 10, 0 is no effect, 10 is complete control): 0
- Redroot pigweed plant response rating (pigweed; [20]): 3
- Morningglory plant response rating (morningglory; [13]): 7
- Morningglory plant response rating (morningglory; [21]): 8
- Morningglory plant response rating (morningglory; [16]): 0
- Plant response rating, Morningglory (morningglory; [22]): 0
- Plant response rating, Morningglory (morningglory; [6]): 0
- Morningglory plant response rating (morningglory; [23]): 0
- Morningglory plant response rating (morningglory; [24]): 4
- Morningglory plant response rating (morningglory; [20]): 8
